SMILES strings stand for the structures. Values joined by “and” are separate entries in the source; they are usually repeats but may differ in a detail not shown here. Equal values may be shown once.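 Following 48 hours of exposure in 96-well plates, responses at five concentrations were used to interpolate endpoints linearly. GI50 = concentration required for 50% inhibition of growth. TGI denotes the concentration required for complete inhibition of growth.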

The assay deals with MDA-MB-468 breast. Kind of assay: growth of human tumour cells (NCI), 48 h.
For `CC(C)c1ccc(Nc2ccc3c(OCCCN4CCN(C)CC4)cccc3n2)cc1`, the GI50 is 12.3 µM and the TGI was determined as 26 µM.
Taken in the same sequence, the figures for `COc1cc2c(cc1OC)C(Sc1ccc(C)cc1)c1c(nc(N)c(C#N)c1N)O2` (stereo not drawn) were 1.16 µM and 2.5 µM.
On to `O=S(=O)(Nc1cc(F)cc(Cl)c1)c1ccc(-c2cnc(C3CC3)o2)cc1`, for which the GI50 was 0.491 µM and the TGI worked out at 6.78 µM.
The matching figures for `C=C(C)[C@@]12OC3(/C=C/C=C/CCCCC)O[C@@H]1[C@@H]1[C@@H]4O[C@]4(CO)[C@@H](O)[C@]4(O)C(=O)C(C)=C[C@H]4[C@@]1(O3)[C@H](C)[C@H]2OC(=O)c1ccccc1`: 1.37 µM and 2.92 µM.
Taken in the same sequence, the figures for `C=C(F)C(=O)N1CCN(c2nc(OC[C@@H]3CCCN3C)nc3c2CCN(c2cccc4cccc(Cl)c24)C3)C[C@@H]1CC#N` were 1.22 µM and 2.58 µM.
On to `CCOc1nc(-c2ccccc2)cc2c(O)c(-c3nnco3)[nH]c(=O)c12`, for which the GI50 was 1.55 µM and the TGI was greater than 25.8 µM.
The matching figures for `Cn1cc(C2=C(c3ccc4ccccc4c3)C(=O)NC2=O)c2ccccc21`: 6.24 µM and greater than 25 µM.
As to `Ic1ccc(Nc2nc3nonc3nc2Nc2ccc(I)cc2)cc1`, the GI50 was 0.174 µM and the TGI turned out to be 1.69 µM.
The matching figures for `COc1ncnc(C2CC2)c1-c1ncc2cnn(Cc3ccc(-c4nc(C(F)(F)F)cn4C(C)C)cc3)c2n1`: 3.77 µM and 38.3 µM.
Taken in the same sequence, the figures for `CCC[CH2][Sn]([CH2]CCC)([CH2]CCC)[O]C(=O)CC` were 0.127 µM and 0.258 µM.
For the molecule `Clc1ccc2c(NCCCNc3nccc(Nc4ccc(Br)cc4)n3)ccnc2c1`, the GI50 was 1.61 µM and the TGI was determined as 3.21 µM.
Taken in the same sequence, the figures for `COc1ccc(N(C)c2ncnc3occ(C)c23)cc1` were less than 0.01 µM and 15.4 µM.
The matching figures for `O=C(Nc1ccc(OS(=O)(=O)c2ccccc2)cc1)C12CC3CC(CC(C3)C1)C2`: 3.8 µM and greater than 100 µM.
The matching figures for `CC1OC2CC(=O)OC2C2=C1C(=O)c1c(O)cccc1C2=O` (stereo not drawn): 0.0208 µM and 0.0525 µM.
As for `O=C(OCc1ccc2cccc(O)c2n1)N1CCN(C(=O)c2cc3cc(F)ccc3[nH]2)CC1`, the GI50 is 1.51 µM and the TGI was found to be 3.28 µM.
Taken in the same sequence, the figures for `COc1cc(C(=O)c2cc(C)c3[nH]c4ccc(Cl)cc4c3c2C)cc(OC)c1OC` were 0.0385 µM and 4.84 µM.
Taken in the same sequence, the figures for `COc1ccc(C(=O)c2cc(OC)c(C)c(OC)c2)cc1OC(=O)CCl` were 2.39 µM and 21.6 µM.
In the case of `COC(=O)/C=C/c1cc(O)c2oc(-c3ccc(O)c(O)c3)c(C(=O)OC)c2c1`, the GI50 is 1.82 µM and the TGI was found to be 12.9 µM.
`CC/C(=C(/c1ccc(OCCN(C)C)cc1)c1ccc(OC(=O)CCCCC(=O)c2c(C)[nH]c(/C=C3\N=C(c4ccc[nH]4)C=C3OC)c2C)cc1)c1ccccc1`: the GI50 is 2.47 µM and the TGI was 14.7 µM.
The matching figures for `COc1cc(C2c3cc4c(cc3OC(N3CCCC3)C2C)OCO4)cc(OC)c1O` (stereo not drawn): 17.5 µM and greater than 100 µM.
Regarding `CC[C@]12C=CCN3CC[C@@]4(c5ccc(OC)cc5N(C)[C@H]4[C@@](O)(C(=O)OC)[C@@H]1OC(=O)CCC[P+](c1ccccc1)(c1ccccc1)c1ccccc1)[C@@H]32`, the GI50 was 0.123 µM and 0.217 µM; the TGI was 0.377 µM and 0.653 µM.
Turning to `Cn1c(=O)c2c(nc(Nc3cc(=O)[nH]c(=O)[nH]3)n2Cc2ccccc2)n(C)c1=O`, the GI50 was 54.8 µM and the TGI is greater than 100 µM.
Taken in the same sequence, the figures for `O=c1n(CC2CO2)c(=O)n(CC2CO2)c(=O)n1CC1CO1` (stereo not drawn) were 2.26 µM and 11.3 µM.
Taken in the same sequence, the figures for `CNCCCn1cc(C2=C(c3cn(C)c4ccccc34)C(=O)NC2=O)c2ccccc21` were 3.59 µM and 7.33 µM.
As to `NCCCNc1nc2ccccc2c2c(=O)c3cc(OC(F)(F)F)ccc3sc12`, the GI50 is 1.76 µM and the TGI came to 3.42 µM.
As for `O=C1NC(=Nc2ccccc2)S/C1=C\c1ccc2ncccc2c1`, the GI50 is 2.06 µM and the TGI was greater than 25 µM.
The matching figures for `COc1cc(Nc2cn[nH]c2-c2ccc(Cl)cc2)cc(OC)c1OC`: 1.6 µM and 6.4 µM.
The matching figures for `CC(SC(C)C(=O)N/N=C/c1cccc(Cl)c1)C(=O)N/N=C\c1cccc(Cl)c1` (stereo not drawn): 21.7 µM and 52.9 µM.
Take `CC(C)(C)C(=O)OCOP(=O)(OCOC(=O)C(C)(C)C)C1CCCN(O)C1=O` (stereo not drawn): the GI50 is 0.977 µM and the TGI was determined as 5.48 µM.
Taken in the same sequence, the figures for `CCN1CCN(c2ccc(Nc3cc(N(C)C(=O)Nc4c(Cl)c(OC)cc(OC)c4Cl)ncn3)cc2)CC1` were 3.01 µM and 11.7 µM.
The matching figures for `O=[N+]([O-])c1ccc(C=C2C(Cl)=C(Cl)C(Cl)=C2Cl)cc1`: 1.7 µM and 3.35 µM.
The matching figures for `NC(=NCCCOc1ccc(Cl)cc1)Nc1ccc(C(F)(F)F)cc1`: 1.63 µM and 3.61 µM.
Regarding `Oc1ccc(Cl)cc1Cc1cc(Cl)cc(Cl)c1O`, the GI50 was 2.79 µM and the TGI came out at 9.41 µM.
The matching figures for `C[C@H]1c2cccc(O)c2C(O)=C2C(=O)[C@]3(O)C(O)=C(C(N)=O)C(=O)[C@@H](N(C)C)[C@@H]3[C@@H](O)[C@@H]21`: 2.05 µM and 6.44 µM.
The matching figures for `C/C(=C\CCc1ccoc1)CC/C=C(\C)CCCC1=CC(=O)OC1`: 2.19 µM and 8.41 µM.
Taken in the same sequence, the figures for `Cc1ccc(C(SCC(N)C(=O)O)(c2ccccc2)c2ccc(C)cc2)cc1` (stereo not drawn) were 0.118 µM and 0.533 µM.
As to `COc1ccc2c(c1)C(C)Cc1c(Cl)ncnc1N2C` (stereo not drawn), the GI50 is 0.276 µM and the TGI amounted to 0.804 µM.
The matching figures for `Cc1c2cccnc2c(C)c2c1c1cc(CO)ccc1n2C`: 0.183 µM and 0.561 µM.
Taken in the same sequence, the figures for `Cc1nc(N)sc1-c1ccnc(Nc2ccc(N3CCOCC3)cc2)n1` were 0.611 µM and greater than 100 µM.
The matching figures for `C=C(C=O)C1CCC2(C(=O)O)CCC3(C)C(CCC4C5(C)CCC(O)C(C)(C)C5CCC43C)C12` (stereo not drawn): 3.27 µM and 20.6 µM.
Consider `C#Cc1cccc(Nc2ncnc3cc(OC)c(OCCCCCCC(=O)NO)cc23)c1`, for which the GI50 is 0.00753 µM and the TGI came to 0.0814 µM.
The matching figures for `Cc1ccc2c(n1)C(=O)c1[nH]c3ccccc3c1C2=O`: 0.51 µM and 3.3 µM.
The matching figures for `COc1ccc(C2CC(c3cccc(Nc4ccncc4)c3)=NN2c2cc(Cl)cc(Cl)c2)cc1` (stereo not drawn): 1.63 µM and 3.29 µM.
The matching figures for `COCCOc1cc(F)c2c(Nc3ccc(NC(=O)Cn4cc(C(C)C)nn4)cc3)ncnc2c1`: 57.1 µM and greater than 100 µM.

The values are drawn from PubChem BioAssay (NCI).
